This passage reports pest or weed control, melting point and inhibition of growth results from patent publication US11358957B2, “Microbiocidal oxadiazole derivatives” (SYNGENTA PARTICIPATIONS AG, priority 2017, dated 2022).

Usually melting point stands for the temperature, or range, at which the solid turns liquid.

Data set [1] relates to Puccinia recondita f. Sp. Tritici. The data set is described as follows: Fungicidal activity against Puccinia recondita f. sp. tritici / wheat / leaf disc curative (brown rust). In kind it is in vivo. To be noted: foliar, 24 h, 200 ppm in the applied formulation, wheat leaf segments cv. Kanzler, curative (applied 1 day after inoculation), compared to untreated, read-out: disease control. The essentials: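 Wheat leaf segments (cv. Kanzler) on agar were inoculated with brown rust spores, kept dark at 19 °C and 75% RH, then sprayed 1 day later with compound (DMSO stock diluted in 0.025% Tween20). Under 12 h light/12 h dark at 19 °C, percent disease control versus untreated was scored 6–8 days after application; 200 ppm applied.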

Data set [2] shares this test system. Put plainly: Fungicidal activity against Puccinia recondita f. sp. tritici / wheat / leaf disc preventative (brown rust). Format: in vivo. Particulars: foliar, 200 ppm in the applied formulation, wheat leaf segments cv. Kanzler, preventative (inoculated 1 day after application), compared to untreated, read-out: disease control. Put shortly: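 Segments of wheat cv. Kanzler on water agar were sprayed with compound and inoculated with spores 1 day later. They were kept at 19 °C, 75% rh and 12 h light/12 h dark. Percent disease control versus untreated was scored 7–9 days after application; compounds were tested at 200 ppm.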

The test system of data set [3] is Glomerella lagenarium (Colletotrichum lagenarium). Put plainly: Fungicidal activity against Glomerella lagenarium (Colletotrichum lagenarium) liquid culture / cucumber / preventative (anthracnose). In kind it is cell-based. Particulars: Colletotrichum orbiculare; 20 ppm in the applied formulation; liquid culture (PDB), inhibition of growth measured photometrically 3 to 4 days after application; compared to untreated; read-out: disease control. Put shortly:
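Conidia from cryogenic storage mixed into potato dextrose broth and added to compound in DMSO in microtiter plates. Incubated at 24° C.; growth inhibition read photometrically 3 to 4 days after application. Disease control expressed relative to untreated control, with compound at 20 ppm in the applied formulation.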

For data set [4], the system named is Phakopsora pachyrhizi. Put plainly: Fungicidal activity against Phakopsora pachyrhizi / soybean / leaf disc preventative (Asian soybean rust). Format: in vivo. Particulars: foliar, 200 ppm in the applied formulation, soybean leaf disks, compared to untreated, read-out: disease control. As for the experimental part: Leaf disks or leaf segments of various plant species are cut from plants grown in a greenhouse. The cut leaf disks or segments are placed in multiwell plates (24-well format) onto water agar. The leaf disks are sprayed with a test solution before (preventative) or after (curative) inoculation. Compounds to be tested are prepared as DMSO solutions (max. 10 mg/mL) which are diluted to the appropriate concentration with 0.025% Tween20 just before spraying. The inoculated leaf disks or segments are incubated under defined conditions (temperature, relative humidity, light, etc.) according to the respective test system. A single evaluation of disease level is carried out 3 to 14 days after inoculation, depending on the pathosystem. Percent disease control relative to the untreated check leaf disks or segments is then calculated. Soybean leaf disks are placed on water agar in multiwell plates (24-well format) and sprayed with the formulated test compound diluted in water. One day after application leaf discs are inoculated by spraying a spore suspension on the lower leaf surface. After an incubation period in a climate cabinet of 24-36 hours in darkness at 20° C. and 75% rh leaf disc are kept at 20° C. with 12 h light/day and 75% rh. The activity of a compound is assessed as percent disease control compared to untreated when an appropriate level of disease damage appears in untreated check leaf disks (12 to 14 days after application). The following compounds at 200 ppm in the applied formulation give at least 80% disease control in this test when compared to untreated control leaf disks under the same conditions, which show extensive disease development.

`O=C(O)c1ncn(Cc2ccc(-c3noc(C(F)(F)F)n3)s2)n1` [Compound 1.63, 1-[[5-[5-(trifluoromethyl)-1,2,4-oxadiazol-3-yl]-2-thienyl]methyl]-1,2,4-triazole-3-carboxylic acid]: the melting point fell in the range of 210 to 220 °C. For the same molecule, in data set [1], the pest or weed control at 200 ppm was at least 80%. Further, the pest or weed control at 200 ppm in data set [2] is at least 80%.

As to `CCOC(=O)c1ccn(Cc2ccc(-c3noc(C(F)(F)F)n3)s2)n1` [Compound 1.42, ethyl 1-[[5-[5-(trifluoromethyl)-1,2,4-oxadiazol-3-yl]-2-thienyl]methyl]pyrazole-3-carboxylate], the melting point was in the range of 120 to 124 °C. The pest or weed control at 200 ppm in data set [1] is at least 80%. Moreover, the inhibition of growth at 20 ppm in data set [3] was at least 80%. Also, the pest or weed control at 200 ppm in data set [2] is at least 80%. Moreover, in data set [4], the pest or weed control at 200 ppm was at least 80%.

Consider `CC(c1ccc(-c2noc(C(F)(F)F)n2)s1)n1cc(C(=O)O)cn1` (centres unmarked) [Compound 1.37, 1-[1-[5-[5-(trifluoromethyl)-1,2,4-oxadiazol-3-yl]-2-thienyl]ethyl]pyrazole-4-carboxylic acid], for which the melting point lay in the range of 133 to 143 °C. Also, the pest or weed control at 200 ppm in data set [1] was at least 80%. The inhibition of growth at 20 ppm in data set [3] was at least 80%. In data set [2], the pest or weed control at 200 ppm was at least 80%.

Regarding `CCOC(=O)c1cnn(Cc2cc(-c3noc(C(F)(F)F)n3)cs2)c1` [Compound 1.26, ethyl 1-[[4-[5-(trifluoromethyl)-1,2,4-oxadiazol-3-yl]-2-thienyl]methyl]pyrazole-4-carboxylate], the melting point fell in the range of 119 to 123 °C. In data set [3], the inhibition of growth at 20 ppm is at least 80%. Also, the pest or weed control at 200 ppm in data set [2] is at least 80%.

For `COc1ccc2c(c1)ncn2Cc1ccc(-c2noc(C(F)(F)F)n2)s1` [Compound 1.24, 3-[5-[(5-methoxybenzimidazol-1-yl)methyl]-2-thienyl]-5-(trifluoromethyl)-1,2,4-oxadiazole], the pest or weed control at 200 ppm in data set [1], in data set [2] and in data set [4] was at least 80% each time. The inhibition of growth at 20 ppm in data set [3] was at least 80%.

For the molecule `CN(C)C(=O)c1ncnn1Cc1ccc(-c2noc(C(F)(F)F)n2)s1` [Compound 1.50, N,N-dimethyl-2-[[5-[5-(trifluoromethyl)-1,2,4-oxadiazol-3-yl]-2-thienyl]methyl]-1,2,4-triazole-3-carboxamide], the pest or weed control at 200 ppm in data set [1], in data set [2] and in data set [4] was at least 80% each time. The inhibition of growth at 20 ppm in data set [3] is at least 80%.

As to `CCCOC(=O)c1ccnn1Cc1ccc(-c2noc(C(F)(F)F)n2)s1` [Compound 1.47, propyl 2-[[5-[5-(trifluoromethyl)-1,2,4-oxadiazol-3-yl]-2-thienyl]methyl]pyrazole-3-carboxylate], the pest or weed control at 200 ppm in data set [1], in data set [2] and in data set [4] was at least 80% in each case. Besides, the inhibition of growth at 20 ppm in data set [3] is at least 80%.

In the case of `Nc1nc(C(F)F)nn1Cc1ccc(-c2noc(C(F)(F)F)n2)s1` [Compound 1.14, 5-(difluoromethyl)-2-[[5-[5-(trifluoromethyl)-1,2,4-oxadiazol-3-yl]-2-thienyl]methyl]-1,2,4-triazol-3-amine], the pest or weed control at 200 ppm in data set [1], in data set [2] and in data set [4] was at least 80% in each case. Besides, in data set [3], the inhibition of growth at 20 ppm was at least 80%.

For `Cc1cccc(=O)n1C(C)c1ccc(-c2noc(C(F)(F)F)n2)s1` (centres unmarked) [Compound 1.33, 6-methyl-1-[1-[5-[5-(trifluoromethyl)-1,2,4-oxadiazol-3-yl]-2-thienyl]ethyl]pyridin-2-one], the pest or weed control at 200 ppm in data set [1], in data set [2] and in data set [4] was at least 80% each time. For the same molecule, the inhibition of growth at 20 ppm in data set [3] was at least 80%.

For `CCOC(=O)c1ncnn1Cc1ccc(-c2noc(C(F)(F)F)n2)s1` [Compound 1.41, ethyl 2-[[5-[5-(trifluoromethyl)-1,2,4-oxadiazol-3-yl]-2-thienyl]methyl]-1,2,4-triazole-3-carboxylate], the pest or weed control at 200 ppm in data set [1], in data set [2] and in data set [4] was at least 80% throughout. In addition, in data set [3], the inhibition of growth at 20 ppm was at least 80%.

For the molecule `O=C(O)c1cnn(Cc2ccc(-c3noc(C(F)(F)F)n3)s2)c1` [Compound 1.36, 1-[[5-[5-(trifluoromethyl)-1,2,4-oxadiazol-3-yl]-2-thienyl]methyl]pyrazole-4-carboxylic acid], the melting point is 182 to 185 °C. In addition, the pest or weed control at 200 ppm in data set [1] was at least 80%. Moreover, in data set [3], the inhibition of growth at 20 ppm was at least 80%. Moreover, in data set [2], the pest or weed control at 200 ppm was at least 80%.

Consider `COC(=O)c1ccn(Cc2ccc(-c3noc(C(F)(F)F)n3)s2)n1` [Compound 1.53, methyl 1-[[5-[5-(trifluoromethyl)-1,2,4-oxadiazol-3-yl]-2-thienyl]methyl]pyrazole-3-carboxylate], for which the pest or weed control at 200 ppm in data set [1], in data set [2] and in data set [4] was at least 80% each time. For the same molecule, the inhibition of growth at 20 ppm in data set [3] was at least 80%.

For the molecule `CN(C)c1ncnn1Cc1ccc(-c2noc(C(F)(F)F)n2)s1` [Compound 1.13, N,N-dimethyl-2-[[5-[5-(trifluoromethyl)-1,2,4-oxadiazol-3-yl]-2-thienyl]methyl]-1,2,4-triazol-3-amine], the pest or weed control at 200 ppm in data set [1], in data set [2] and in data set [4] was at least 80% in each case. For the same molecule, the inhibition of growth at 20 ppm in data set [3] was at least 80%.

Consider `O=C(O)c1ccnn1Cc1ccc(-c2noc(C(F)(F)F)n2)s1` [Compound 1.64, 2-[[5-[5-(trifluoromethyl)-1,2,4-oxadiazol-3-yl]-2-thienyl]methyl]pyrazole-3-carboxylic acid], for which the melting point was in the range of 145 to 165 °C. The pest or weed control at 200 ppm in data set [1] is at least 80%. For the same molecule, the inhibition of growth at 20 ppm in data set [3] was at least 80%. In addition, the pest or weed control at 200 ppm in data set [2] was at least 80%.

As for `COC(=O)c1ncnn1Cc1ccc(-c2noc(C(F)(F)F)n2)s1` [Compound 1.55, methyl 2-[[5-[5-(trifluoromethyl)-1,2,4-oxadiazol-3-yl]-2-thienyl]methyl]-1,2,4-triazole-3-carboxylate], the pest or weed control at 200 ppm in data set [1], in data set [2] and in data set [4] was at least 80% each time. For the same molecule, in data set [3], the inhibition of growth at 20 ppm is at least 80%.

Consider `COCc1nn(Cc2ccc(-c3noc(C(F)(F)F)n3)s2)cc1C(=O)OC` [Compound 1.19, methyl 3-(methoxymethyl)-1-[[5-[5-(trifluoromethyl)-1,2,4-oxadiazol-3-yl]-2-thienyl]methyl]pyrazole-4-carboxylate], for which the pest or weed control at 200 ppm in data set [1], in data set [2] and in data set [4] was at least 80% each time. The inhibition of growth at 20 ppm in data set [3] is at least 80%.

Regarding `COc1ccc2ncn(Cc3ccc(-c4noc(C(F)(F)F)n4)s3)c2c1` [Compound 1.23, 3-[5-[(6-methoxybenzimidazol-1-yl)methyl]-2-thienyl]-5-(trifluoromethyl)-1,2,4-oxadiazole], the pest or weed control at 200 ppm in data set [1], in data set [2] and in data set [4] was at least 80% throughout. The inhibition of growth at 20 ppm in data set [3] is at least 80%.

With `CCOC(=O)c1cnn(Cc2ccc(-c3noc(C(F)(F)F)n3)s2)c1` [Compound 1.1, ethyl 1-[[5-[5-(trifluoromethyl)-1,2,4-oxadiazol-3-yl]-2-thienyl]methyl]pyrazole-4-carboxylate], the pest or weed control at 200 ppm in data set [1], in data set [2] and in data set [4] was at least 80% each time. The inhibition of growth at 20 ppm in data set [3] is at least 80%.
